# From US20090099167A1, “Organic compounds” (Novartis Institutes for Biomedical Research, priority 2004, published 2009)
# Target: T1, Tek (Homo sapiens, UniProt Q02763)
# T1 construct: N-terminally GST-fused (pAcG1, Pharmingen) KDR, Flt-1, Flk-1, Tek and PDGFR-β kinase domains are obtained from ProQinase, Freiburg, Germany; host or cells: Sf9 or High Five (baculovirus)
# Assay: Tek kinase inhibition, GST-fused kinase domain
# Format: biochemical
# Details: Table 5; read-out: Tek, IC50 class
# From the text: The inhibition of IGF-1R and Ins-R can be determined as follows: The baculovirus donor vector pfbgx3IGFIRcd is used to generate a recombinant baculovirus that expresses the amino acid region 950-1337 of the mature peptide cytoplasmic domain of the human IGF-IR. To generate the cDNA fragment encoding the amino acid region 919-1343 of the intra-cytoplasmic kinase domain of the human insulin receptor, pC5hInsR is used. The fragments of the human IGF-IR and Ins-R are cloned, expressed and small-scale purified as a factor Xa-cleavable glutathione-S-transferase (GST)-fusion protein using the Bac-to-Bac™ system (GIBCO BRL) of recombinant baculovirus generation. Virus containing media is collected from the transfected cell culture and used for infection to increase its titer. Virus containing media obtained after two rounds of infection is used for large-scale protein expression. Cell extracts are prepared and loaded onto a glutathione-Sepharose (Pharmacia) column. After washing, the GST-tagged proteins are then eluted with a glutathione-containing buffer. Purified protein is stored at −70° C. in elution buffer. Tyrosine protein kinase assays with purified GST-IGF-1R and GST-ins-R are carried in a final volume of 30 μl containing 20 mM Tris-HCl, pH 7.6, 10 mM MgCl2, 0.01 mM Na3VO4, 1% DMSO, 1 mM DTT, 3 μg/ml poly(Glu,Tyr) 4:1 and 10 μM ATP (γ-[^33P]-ATP 0.1 μCi). The assay is performed in 96-well plates at ambient temperature for 20 min and terminated by addition of 25 μl 0.05 M EDTA pH 7.0. An aliquot of 40 μl is spotted with a multichannel dispenser on Whatman P81 membranes mounted in a Millipore Microtiter filter manifold connected to a low vacuum source. After elimination of liquid, the membrane is transferred to a sequence of 4 washing baths containing 0.5% H3PO4 and one with EtOH (shaking incubation for 10 min each), dried, mounted onto a Hewlett Packard TopCount manifold added 10 μl Microscint® and counted. Compounds of formula (I) show up to 90% inhibition of Ins-R at 10,000 nM, preferably between 60-90% inhibition. The inhibition of Tek can be determined as follows: The procedure of the expression, purification and assay these kinases has been described. Fabbro et al., Pharmacol. Ther. 82(2-3) 293-301 (1999). In brief, the glutathione S-transferase (GST) gene from the pAcG1 vector (Pharmingen) is excised with EcoRV and EcoRI and inserted into the cloning site of the Fast-Bac baculoviral vector (GIBCO) creating a 5530 bp vector with N-terminal cloning sites derived from the pAcG1 fusion vector (FBG0). The C-terminal cloning site may be any cloning site (from the Fast-Bac vector) downstream of the N-terminal cloning site used. N-terminally GST-fused (pAcG1, Pharmingen) KDR, Flt-1, Flk-1, Tek and PDGFR-β kinase domains are obtained from ProQinase, Freiburg, Germany. Tek is recloned into the FBG1 vector by EcoRI excision and ligation into EcoRI digested FBG1 (FBG1-Tek). The coding sequences for the whole cytoplasmic domain of c-Kit (aa 544-976) and c-Fms (aa 538-972) are amplified by PCR from human uterus and from human bone marrow cDNA libraries (Clontech), respectively. The amplified DNA fragments are fused to GST by cloning them into FBG1 as BamHI-EcoRI insertions, to yield FBG1-c-Kit and FBG1-c-Fms. Tek is recloned into the FBG0 transfer vector by EcoRI excision and ligation into EcoRI digested FBG0 (FBG-Tie2/Tek). FGFR-1 and c-met kinase domains are obtained by PCR from human A431 cells. N-terminal primers contain an overhanging EcoRI site, while C-terminal primers contain a XhoI site to aid cloning into the transfer vectors. After digestion of both the PCR fragments and FBG0 the cleavage products are gel-purified and ligated together to form the kinase constructs (FBG-Met, FBG-FGFR-1).
# Viruses for each of the kinases are made according to the protocol supplied by GIBCO. […]
# T1 sequence (Q02763 824-1096 limits assumed, species assumed): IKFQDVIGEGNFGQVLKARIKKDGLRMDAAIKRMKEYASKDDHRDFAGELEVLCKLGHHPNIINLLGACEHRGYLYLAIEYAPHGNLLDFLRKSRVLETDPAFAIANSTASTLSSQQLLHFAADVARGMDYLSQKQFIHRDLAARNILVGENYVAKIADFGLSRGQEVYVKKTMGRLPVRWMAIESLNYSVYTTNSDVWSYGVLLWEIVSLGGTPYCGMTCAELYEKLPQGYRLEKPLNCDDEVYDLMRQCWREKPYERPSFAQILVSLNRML
row,SMILES,IC50 [µM]
1,"Cc1nc2c(-c3cccc(N4CCN(C)CC4)c3)cnn2c(N)c1-c1cccc(Cl)c1 [Example 72, 6-(3-Chloro-phenyl)-5-methyl-3-[3-(4-methyl-piperazin-1-yl)-phenyl]-pyrazolo[1,5-a]pyrimidin-7-ylamine]",1 to 10
2,"Cc1nc2c(-c3ccc(N4CCN(C)CC4)cc3)cnn2c(N)c1-c1cccc(Cl)c1 [Example 73, 6-(3-Chloro-phenyl)-5-methyl-3-[4-(4-methyl-piperazin-1-yl)-phenyl]-pyrazolo[1,5-a]pyrimidin-7-ylamine]",1 to 10
3,"COc1cc(N2CCN(C)CC2)ccc1-c1cnn2c(N)c(-c3cccc(O)c3)cnc12 [Example 76, 3-{7-Amino-3-[2-methoxy-4-(4-methyl-piperazin-1-yl)-phenyl]-pyrazolo[1,5-a]pyrimidin-6-yl}-phenol]",< 1
4,"CN1CCN(c2ccc(-c3cnn4c(N)c(-c5ccccc5Cl)cnc34)cc2)CC1 [Example 77, 6-(2-Chloro-phenyl)-3-[4-(4-methyl-piperazin-1-yl)-phenyl]-pyrazolo[1,5-a]pyrimidin-7-ylamine]",< 1
5,"CN1CCN(c2cccc(-c3cnn4c(N)c(-c5ccccc5Cl)cnc34)c2)CC1 [Example 78, 6-(2-Chloro-phenyl)-3-[3-(4-methyl-piperazin-1-yl)-phenyl]-pyrazolo[1,5-a]pyrimidin-7-ylamine]",1 to 10
6,"Cc1nc2c(-c3ccc(N4CCN(C)CC4)cc3)cnn2c(N)c1-c1ccc(F)cc1 [Example 79, 6-(4-Fluoro-phenyl)-5-methyl-3-[4-(4-methyl-piperazin-1-yl)-phenyl]-pyrazolo[1,5-a]pyrimidin-7-ylamine]",> 10
7,"Cc1nc2c(-c3cccc(N4CCN(C)CC4)c3)cnn2c(N)c1-c1ccc(F)cc1 [Example 80, 6-(4-Fluoro-phenyl)-5-methyl-3-[3-(4-methyl-piperazin-1-yl)-phenyl]-pyrazolo[1,5-a]pyrimidin-7-ylamine]",1 to 10
8,"Cc1nc2c(-c3cccc(N4CCN(C5CCN(C)CC5)CC4)c3)cnn2c(N)c1-c1cccc(Cl)c1 [Example 81, 6-(3-Chloro-phenyl)-5-methyl-3-{3-[4-(1-methyl-piperidin-4-yl)-piperazin-1-yl]-phenyl}-pyrazolo[1,5-a]pyrimidin-7-ylamine]",< 1
9,"Cc1nc2c(-c3cccc(N4CCN(C)CC4)c3)cnn2c(N)c1-c1ccc(F)c(Cl)c1 [Example 82, 6-(3-Chloro-4-fluoro-phenyl)-5-methyl-3-[3-(4-methyl-piperazin-1-yl)-phenyl]pyrazolo[1,5-a]pyrimidin-7-ylamine]",> 10
10,"Cc1nc2c(-c3ccc(N4CCN(C)CC4)cc3)cnn2c(N)c1-c1ccc(F)c(Cl)c1 [Example 83, 6-(3-Chloro-4-fluoro-phenyl)-5-methyl-3-[4-(4-methyl-piperazin-1-yl)-phenyl]-pyrazolo[1,5-a]pyrimidin-7-ylamine]",> 10
11,"Cc1nc2c(-c3cccc(N4CCN(C)CC4)c3)cnn2c(N)c1-c1cccc(Br)c1 [Example 84, 6-(3-Bromo-phenyl)-5-methyl-3-[3-(4-methyl-piperazin-1-yl)-phenyl]-pyrazolo[1,5-a]pyrimidin-7-ylamine]",> 10
12,"CN1CCN(c2cccc(-c3cnn4c(N)c(Cc5cccc(Br)c5)cnc34)c2)CC1 [Example 85, 6-(3-Bromo-benzyl)-3-[3-(4-methyl-piperazin-1-yl)-phenyl]pyrazolo[1,5-a]pyrimidin-7-ylamine]",> 10
13,"CN1CCN(c2cccc(-c3cnn4c(N)c(-c5cccc(Br)c5)cnc34)c2)CC1 [Example 86, 6-(3-Bromo-phenyl)-3-[3-(4-methyl-piperazin-1-yl)-phenyl]-pyrazolo[1,5-a]pyrimidin-7-ylamine]",1 to 10
14,"Cc1nc2c(-c3cccc(N4CCOCC4)c3)cnn2c(N)c1-c1cccc(Cl)c1 [Example 87, 6-(3-Chloro-phenyl)-5-methyl-3-(3-morpholin-4-yl-phenyl)-pyrazolo[1,5-a]pyrimidin-7-ylamine]",> 10
15,"COc1ccc(-c2cnn3c(N)c(-c4cccc(Cl)c4)c(C)nc23)cc1 [Example 88, 6-(3-Chloro-phenyl)-3-(4-methoxy-phenyl)-5-methyl-pyrazolo[1,5-a]pyrimidin-7-ylamine]",> 10
16,"Cc1nc2c(-c3cccc(N4C[C@@H](C)O[C@@H](C)C4)c3)cnn2c(N)c1-c1cccc(Cl)c1 [Example 89, 6-(3-Chloro-phenyl)-3-[3-((2R,6S)-2,6-dimethyl-morpholin-4-yl)-phenyl]-5-methyl-pyrazolo[1,5-a]pyrimidin-7-ylamine]",1 to 10
17,"Cc1nc2c(-c3cccc(N4CCN(CCO)CC4)c3)cnn2c(N)c1-c1cccc(Cl)c1 [Example 90, 2-(4-{3-[7-Amino-6-(3-chloro-phenyl)-5-methyl-pyrazolo[1,5-a]pyrimidin-3-yl]-phenyl}-piperazin-1-yl)-ethanol]",1 to 10
18,"CN1CCN(c2cccc(-c3cnn4c(N)c(Cc5ccccc5)cnc34)c2)CC1 [Example 91, 6-Benzyl-3-[3-(4-methyl-piperazin-1-yl)-phenyl]-pyrazolo[1,5-a]pyrimidin-7-ylamine]",> 10
19,"COc1ccc(-c2cnn3c(N)c(-c4cccc(Cl)c4)c(CF)nc23)cc1OC [Example 92, 6-(3-Chloro-phenyl)-3-(3,4-dimethoxy-phenyl)-5-fluoromethyl-pyrazolo[1,5-a]pyrimidin-7-ylamine]",> 10
20,"COc1ccc(-c2cnn3c(N)c(-c4cccc(Cl)c4)c(C)nc23)cc1OC [Example 93, 6-(3-Chloro-phenyl)-3-(3,4-dimethoxy-phenyl)-5-methyl-pyrazolo[1,5-a]pyrimidin-7-ylamine]",> 10
21,"COc1ccc(-c2cnn3c(N)c(-c4ccc(F)c(Cl)c4)c(C)nc23)cc1OC [Example 94, 6-(3-Chloro-4-fluoro-phenyl)-3-(3,4-dimethoxy-phenyl)-5-methyl-pyrazolo[1,5-a]pyrimidin-7-ylamine]",> 10
22,"COc1ccc(-c2cnn3c(N)c(-c4ccc(F)c(Cl)c4)c(C)nc23)cc1 [Example 95, 6-(3-Chloro-4-fluoro-phenyl)-3-(4-methoxy-phenyl)-5-methyl-pyrazolo[1,5-a]pyrimidin-7-ylamine]",> 10
23,"COc1ccc(-c2cnn3c(N)c(-c4ccc(F)cc4)c(C)nc23)cc1 [Example 96, 6-(4-Fluoro-phenyl)-3-(4-methoxy-phenyl)-5-methyl-pyrazolo[1,5-a]pyrimidin-7-ylamine]",> 10
24,"Cc1nc2c(-c3cccc(N4CCN(CCO)CC4)c3)cnn2c(N)c1-c1ccc(F)cc1 [Example 97, 2-(4-{3-[7-Amino-6-(4-fluoro-phenyl)-5-methyl-pyrazolo[1,5-a]pyrimidin-3-yl]-phenyl}-piperazin-1-yl)-ethanol]",> 10
25,"Cc1nc2c(-c3cccc(N4CCN(C)CC4)c3)cnn2c(N)c1-c1ccc(F)c(F)c1 [Example 98, 6-(3,4-Difluoro-phenyl)-5-methyl-3-[3-(4-methyl-piperazin-1-yl)-phenyl]-pyrazolo[1,5-a]pyrimidin-7-ylamine]",1 to 10
26,"COc1ccc(-c2cnn3c(N)c(-c4ccc(F)c(F)c4)c(C)nc23)cc1OC [Example 99, 6-(3,4-Difluoro-phenyl)-3-(3,4-dimethoxy-phenyl)-5-methyl-pyrazolo[1,5-a]pyrimidin-7-ylamine]",> 10
